From patent US9211310B2, “Use of a Chinese medicine composition in preparing medicaments for treating secondary prevention of myocardial infarction” (TASLY PHARMACEUTICAL GROUP CO., LTD, priority 2010, dated 2015)

Tested on: patients after acute myocardial infarction
Assay: Life quality, Seattle Angina Questionnaire (SAQ), same clinical trial
Format: in vivo, human
Conditions: PP
Text: 3508 patients who were in accordance with the diagnostic standards of AMI for 28 days to 2 years and differentiated as Qi deficiency and blood stagnation syndrome by TCM were studied. 0.5 g Chinese medicine composition prepared by the method of EXAMPLE 1 (Coded as QSYQ) was administrated half an hour after meal, 3 times per day.
There were 19 questions in the Seattle angina questionnaire (SAQ), including 5 parts: physical limitation (PL), anginal stability (AS), anginal frequency (AF), treatment satisfaction (TS) and disease perception (DP). After being given necessary explanation by doctors, the questions were answered independently by patients.
They included the overall survival time, angina pectoris score, TCM symptom score and life quality score, where angina pectoris score, TCM symptom score and life quality score were evaluated at randomization, in 1st, 3rd, 6th, 9th, 12th month after treatment and 18th month after follow-up.
All evaluation results of SAQ were described during the period of observation, and Wilcoxon rank sum test was used for inter-group comparison.
The evaluation results in the SAQ were depicted in different observations, and inter-group comparison was tested by Wilcoxon Rank-sum test.

[1] = Follow-up, second line headed Not limited (r60)

## CC(=O)Oc1ccccc1C(=O)O [Control group, aspirine]
Baseline
  SAQ 7th question, Highly satisfied: % of patients: (20.32%)
  SAQ 7th question, Highly satisfied: number of patients: 304
  SAQ 7th question, Mostly dissatisfied: % of patients: (4.88%)
  SAQ 7th question, Mostly dissatisfied: number of patients: 73
  SAQ 7th question, Mostly satisfied: % of patients: (46.52%)
  SAQ 7th question, Mostly satisfied: number of patients: 696
  SAQ 7th question, Partly satisfied: % of patients: (27.94%)
  SAQ 7th question, Partly satisfied: number of patients: 418
  SAQ Question 1-1 Mildly limited, number of patients: 30
  SAQ Question 1-1 Mildly limited, percent of patients: (2.01%)
  SAQ Question 1-1 Moderately limited, number of patients: 13
  SAQ Question 1-1 Moderately limited, percent of patients: (0.87%)
  SAQ Question 1-1 Not limited, number of patients: 1359
  SAQ Question 1-1 Not limited, percent of patients: (90.96%)
  SAQ Question 1-1 Other reasons, number of patients: 4
  SAQ Question 1-1 Other reasons, percent of patients: (0.27%)
  SAQ Question 1-1 Severely limited, number of patients: 1
  SAQ Question 1-1 Severely limited, percent of patients: (0.07%)
  SAQ Question 1-1 Slightly limited, number of patients: 87
  SAQ Question 1-1 Slightly limited, percent of patients: (5.82%)
  SAQ Question 1-2 Mildly limited, number of patients: 42
  SAQ Question 1-2 Mildly limited, percent of patients: (2.81%)
  SAQ Question 1-2 Moderately limited, number of patients: 13
  SAQ Question 1-2 Moderately limited, percent of patients: (0.87%)
  SAQ Question 1-2 Not limited, number of patients: 1319
  SAQ Question 1-2 Not limited, percent of patients: (88.29%)
  SAQ Question 1-2 Other reasons, number of patients: 5
  SAQ Question 1-2 Other reasons, percent of patients: (0.33%)
  SAQ Question 1-2 Severely limited, number of patients: 2
  SAQ Question 1-2 Severely limited, percent of patients: (0.13%)
  SAQ Question 1-2 Slightly limited, percent of patients: (7.56%)
  SAQ Question 1-6: Mildly limited, patients (%): (20.58%)
  SAQ Question 1-6: Moderately limited, patients (%): (18.43%)
  SAQ Question 1-6: Not limited, patients (%): (25.02%)
  SAQ Question 1-6: Other reasons, patients (%): (1.01%)
  SAQ Question 1-6: Severely limited, patients (%): (6.99%)
  SAQ Question 1-6: Slightly limited, patients (%): (27.98%)
  SAQ Question 1-7: Mildly limited, patients (%): (25.03%)
  SAQ Question 1-7: Moderately limited, patients (%): (19.44%)
  SAQ Question 1-7: Not limited, patients (%): (9.62%)
  SAQ Question 1-7: Other reasons, patients (%): (3.14%)
  SAQ Question 1-7: Severely limited, patients (%): (21.49%)
  SAQ Question 1-7: Slightly limited, patients (%): (21.28%)
  SAQ Question 1-8: Mildly limited, patients (%): (24.40%)
  SAQ Question 1-8: Moderately limited, patients (%): (22.43%)
  SAQ Question 1-8: Not limited, patients (%): (7.43%)
  SAQ Question 1-8: Other reasons, patients (%): (2.52%)
  SAQ Question 1-8: Severely limited, patients (%): (26.45%)
  SAQ Question 1-8: Slightly limited, patients (%): (16.77%)
Follow-up
  8th question: Dissatisfied, patients (%): (0.07%)
  8th question: Highly satisfied, patients (%): (28.16%)
  8th question: Mostly dissatisfied, patients (%): (0.64%)
  8th question: Mostly satisfied, patients (%): (60.27%)
  8th question: Partly satisfied, patients (%): (10.87%)
  9th question: Few, patients (%): (44.23%)
  9th question: Mild, patients (%): (27.32%)
  9th question: Moderate, patients (%): (3.87%)
  9th question: Severe, patients (%): (0.14%)
  9th question: Uneffective, patients (%): (24.44%)
  10th question: Dissatisfied, patients (%): (18.11%)
  10th question: Highly satisfied, patients (%): (9.51%)
  10th question: Mostly dissatisfied, patients (%): (19.38%)
  10th question: Mostly satisfied, patients (%): (32.21%)
  10th question: Partly satisfied, patients (%): (20.79%)
  11th question: Continuously worried, patients (%): (1.34%)
  11th question: No worried, patients (%): (8.74%)
  11th question: Occasionally worried, patients (%): (38.83%)
  11th question: Often worried, patients (%): (6.84%)
  11th question: Seldom worried, patients (%): (44.26%)
  SAQ 4th question, 1-2 times per week: % of patients: (13.17%)
  SAQ 4th question, 1-2 times per week: number of patients: 186
  SAQ 4th question, 1-3 times per week: % of patients: (2.83%)
  SAQ 4th question, 1-3 times per week: number of patients: 40
  SAQ 4th question, <1 time per week: % of patients: (16.08%)
  SAQ 4th question, <1 time per week: number of patients: 227
  SAQ 4th question, Not used: % of patients: (66.08%)
  SAQ 4th question, Not used: number of patients: 933
  SAQ 4th question, ≧3 times per week: % of patients: (1.84%)
  SAQ 4th question, ≧3 times per week: number of patients: 26
  SAQ 4th question, ≧4 times per day: % of patients: (0.00%)
  SAQ 4th question, ≧4 times per day: number of patients: 0
  SAQ 5th question, 1-2 times per week: % of patients: (32.86%)
  SAQ 5th question, 1-2 times per week: number of patients: 465
  SAQ 5th question, 1-3 times per day: % of patients: (3.18%)
  SAQ 5th question, 1-3 times per day: number of patients: 45
  SAQ 5th question, <1 time per week: % of patients: (31.24%)
  SAQ 5th question, <1 time per week: number of patients: 442
  SAQ 5th question, No onset: % of patients: (7.49%)
  SAQ 5th question, No onset: number of patients: 106
  SAQ 5th question, ≧3 times per week: % of patients: (25.09%)
  SAQ 5th question, ≧3 times per week: number of patients: 355
  SAQ 5th question, ≧4 times per day: % of patients: (0.14%)
  SAQ 5th question, ≧4 times per day: number of patients: 2
  SAQ 6th question, Dissatisfied: % of patients: (0.00%)
  SAQ 6th question, Dissatisfied: number of patients: 0
  SAQ 6th question, Highly satisfied: % of patients: (28.52%)
  SAQ 6th question, Highly satisfied: number of patients: 405
  SAQ 6th question, Mostly dissatisfied: % of patients: (0.63%)
  SAQ 6th question, Mostly dissatisfied: number of patients: 9
  SAQ 6th question, Mostly satisfied: % of patients: (62.25%)
  SAQ 6th question, Mostly satisfied: number of patients: 884
  SAQ 6th question, Partly satisfied: % of patients: (8.59%)
  SAQ 6th question, Partly satisfied: number of patients: 122
  SAQ 7th question, Dissatisfied: % of patients: (0.00%)
  SAQ 7th question, Dissatisfied: number of patients: 0
  SAQ 7th question, Highly satisfied: % of patients: (30.75%)
  SAQ 7th question, Highly satisfied: number of patients: 436
  SAQ 7th question, Mostly dissatisfied: % of patients: (0.28%)
  SAQ 7th question, Mostly dissatisfied: number of patients: 4
  SAQ 7th question, Mostly satisfied: % of patients: (62.13%)
  SAQ 7th question, Mostly satisfied: number of patients: 881
  SAQ 7th question, Partly satisfied: % of patients: (6.84%)
  SAQ 7th question, Partly satisfied: number of patients: 97
  SAQ Question 1-1 Mildly limited, number of patients: 6
  SAQ Question 1-1 Mildly limited, percent of patients: (0.43%)
  SAQ Question 1-1 Moderately limited, number of patients: 1
  SAQ Question 1-1 Moderately limited, percent of patients: (0.07%)
  SAQ Question 1-1 Not limited, number of patients: 1352
  SAQ Question 1-1 Not limited, percent of patients: (95.95%)
  SAQ Question 1-1 Other reasons, number of patients: 5
  SAQ Question 1-1 Other reasons, percent of patients: (0.35%)
  SAQ Question 1-1 Severely limited, number of patients: 1
  SAQ Question 1-1 Severely limited, percent of patients: (0.07%)
  SAQ Question 1-1 Slightly limited, number of patients: 44
  SAQ Question 1-1 Slightly limited, percent of patients: (3.12%)
  SAQ Question 1-2 Mildly limited, number of patients: 8
  SAQ Question 1-2 Mildly limited, percent of patients: (0.57%)
  SAQ Question 1-2 Moderately limited, number of patients: 0
  SAQ Question 1-2 Moderately limited, percent of patients: (0.00%)
  SAQ Question 1-2 Not limited, number of patients: 1336
  SAQ Question 1-2 Not limited, percent of patients: (94.82%)
  SAQ Question 1-2 Severely limited, number of patients: 2
  SAQ Question 1-2 Severely limited, percent of patients: (0.14%)
  SAQ Question 1-2 Slightly limited, number of patients: 56
  SAQ Question 1-2 Slightly limited, percent of patients: (3.97%)
  SAQ Question 1-6: Mildly limited, patients (%): (11.32%)
  SAQ Question 1-6: Moderately limited, patients (%): (9.19%)
  SAQ Question 1-6: Not limited, patients (%): (41.95%)
  SAQ Question 1-6: Other reasons, patients (%): (0.85%)
  SAQ Question 1-6: Severely limited, patients (%): (2.28%)
  SAQ Question 1-6: Slightly limited, patients (%): (34.40%)
  SAQ Question 1-7: Mildly limited, patients (%): (21.92%)
  SAQ Question 1-7: Moderately limited, patients (%): (6.63%)
  SAQ Question 1-7: Not limited, patients (%): (22.35%)
  SAQ Question 1-7: Other reasons, patients (%): (2.60%)
  SAQ Question 1-7: Severely limited, patients (%): (11.68%)
  SAQ Question 1-7: Slightly limited, patients (%): (34.82%)
  SAQ Question 1-8: Mildly limited, patients (%): (24.93%)
  SAQ Question 1-8: Moderately limited, patients (%): (11.85%)
  SAQ Question 1-8: Not limited, patients (%): (15.12%)
  SAQ Question 1-8: Other reasons, patients (%): (3.27%)
  SAQ Question 1-8: Severely limited, patients (%): (14.75%)
  SAQ Question 1-8: Slightly limited, patients (%): (30.09%)
[1]
  SAQ Question 1-2 Not limited, number of patients: 7
  SAQ Question 1-2 Not limited, percent of patients: (0.50%)
